Test results as given in ChEMBL document CHEMBL1201862, “PubChem BioAssay data set” (2004).
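Five compound concentrations were applied to cells in 96-well plates for 48 hours; endpoints were derived by simple linear interpolation of the resulting dose-response curve. At the GI50, growth is halved.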 The source made the active and inactive calls. Rule as the data show it: active = GI50 up to about 1.1 µM and inactive = higher.

Legend:
Test in all cases: NCI anticancer screen, dose series, 48 h
CCRF-CEM = system: CCRF-CEM
COLO 205 = system: COLO 205
HCT-116 = system: HCT-116
HT-29 = system: HT-29
KM12 = system: KM12
LOX IMVI = system: LOX IMVI
M14 = system: M14
Malme-3M = system: Malme-3M
NCI-H460 = system: NCI-H460
NCI-H522 = system: NCI-H522
OVCAR-8 = system: OVCAR-8
TK-10 = system: TK-10

For `N#CC(C(=N/NC(N)=S)/C(=N\NC(N)=S)C(C#N)c1ccccc1)c1ccccc1` (stereo not given), the GI50 (CCRF-CEM) was > 10 µM (inactive), the GI50 (COLO 205) was > 10 µM (inactive) and the GI50 (HCT-116) was > 10 µM (inactive). The GI50 (HT-29) was > 10 µM (inactive), the GI50 (KM12) was > 10 µM (inactive) and the GI50 (LOX IMVI) was > 10 µM (inactive). The GI50 (M14) was > 10 µM (inactive), the GI50 (Malme-3M) was > 10 µM (inactive) and the GI50 (NCI-H460) was > 10 µM (inactive). For the same compound, the GI50 (NCI-H522) was > 10 µM (inactive), the GI50 (OVCAR-8) was > 10 µM (inactive) and the GI50 (TK-10) was > 10 µM (inactive).
For `C/C(=N\NC(=S)N1CCCCCC1)c1nccnc1C`, the GI50 (CCRF-CEM) was 0.0607 µM (active), the GI50 (COLO 205) was < 0.01 µM (active) and the GI50 (HT-29) was 0.0719 µM (active). For the same compound, the GI50 (KM12) was 0.0887 µM (active), the GI50 (LOX IMVI) was < 0.01 µM (active) and the GI50 (M14) was < 0.01 µM (active). For the same compound, the GI50 (Malme-3M) was 11.8 µM (inactive), the GI50 (OVCAR-8) was < 0.01 µM (active) and the GI50 (TK-10) was 0.56 µM (active).
`CCCCCCCCCCCCCC(=O)NCC(OCC)OCC` was tested, and the GI50 (CCRF-CEM) was > 100 µM (inactive), the GI50 (COLO 205) was > 100 µM (inactive) and the GI50 (HCT-116) was > 100 µM (inactive). For the same compound, the GI50 (HT-29) was > 100 µM (inactive), the GI50 (KM12) was > 100 µM (inactive) and the GI50 (LOX IMVI) was > 100 µM (inactive). The GI50 (M14) was > 100 µM (inactive), the GI50 (Malme-3M) was > 100 µM (inactive) and the GI50 (NCI-H460) was > 100 µM (inactive). For the same compound, the GI50 (NCI-H522) was > 100 µM (inactive), the GI50 (OVCAR-8) was > 100 µM (inactive) and the GI50 (TK-10) was > 100 µM (inactive).
With `O=C1C=C(Nc2ccccc2C(=O)c2ccccc2)c2ccccc2C1=O` the GI50 (COLO 205) was > 100 µM (inactive), the GI50 (HCT-116) was > 100 µM (inactive) and the GI50 (HT-29) was > 100 µM (inactive). The GI50 (KM12) was 33.3 µM (inactive), the GI50 (M14) was > 100 µM (inactive) and the GI50 (Malme-3M) was > 100 µM (inactive). The GI50 (NCI-H460) was 71 µM (inactive), the GI50 (NCI-H522) was 25 µM (inactive) and the GI50 (OVCAR-8) was > 100 µM (inactive).
For `COC(=O)C1=C(c2cc(OC)c(OC)c(OC)c2)O[C@H](c2ccc3c(c2)OCO3)[C@H]1COC(C)=O`, the GI50 (CCRF-CEM) was 40.2 µM (inactive), the GI50 (COLO 205) was 10.7 µM (inactive) and the GI50 (HT-29) was 18.6 µM (inactive). For the same compound, the GI50 (KM12) was 20.2 µM (inactive), the GI50 (LOX IMVI) was 32.1 µM (inactive) and the GI50 (M14) was 15.3 µM (inactive). The GI50 (Malme-3M) was 34.4 µM (inactive), the GI50 (NCI-H460) was 30.5 µM (inactive) and the GI50 (OVCAR-8) was 39.3 µM (inactive). For the same compound, the GI50 (TK-10) was 39.2 µM (inactive).
With `COc1ccc(S(=O)(=O)N/N=C/CN2C(=O)c3ccccc3C2=O)cc1` the GI50 (CCRF-CEM) was > 100 µM (inactive), the GI50 (COLO 205) was > 100 µM (inactive) and the GI50 (HT-29) was > 100 µM (inactive). For the same compound, the GI50 (KM12) was > 100 µM (inactive), the GI50 (LOX IMVI) was > 100 µM (inactive) and the GI50 (M14) was > 100 µM (inactive). For the same compound, the GI50 (Malme-3M) was > 100 µM (inactive), the GI50 (NCI-H460) was > 100 µM (inactive) and the GI50 (NCI-H522) was > 100 µM (inactive). The GI50 (OVCAR-8) was > 100 µM (inactive) and the GI50 (TK-10) was > 10 µM (inactive).
In the case of `CCOC(=O)C(=O)Nc1nc2ccc(C)cc2s1`, the GI50 (CCRF-CEM) is reported as > 100 µM (inactive), the GI50 (COLO 205) is reported as > 100 µM (inactive) and the GI50 (HCT-116) is reported as > 100 µM (inactive). For the same compound, the GI50 (HT-29) was > 100 µM (inactive), the GI50 (KM12) was > 100 µM (inactive) and the GI50 (M14) was > 100 µM (inactive). For the same compound, the GI50 (Malme-3M) was > 100 µM (inactive), the GI50 (NCI-H460) was > 100 µM (inactive) and the GI50 (NCI-H522) was > 100 µM (inactive). For the same compound, the GI50 (OVCAR-8) was > 100 µM (inactive).
In the case of `Cc1[nH]c2c(C)cccc2c1C1Cc2ccccc2N1` (stereo not given), the GI50 (CCRF-CEM) is reported as 25.5 µM (inactive), the GI50 (COLO 205) is reported as 18.2 µM (inactive) and the GI50 (HCT-116) is reported as 17 µM (inactive). For the same compound, the GI50 (HT-29) was 19.5 µM (inactive), the GI50 (KM12) was 17.5 µM (inactive) and the GI50 (LOX IMVI) was 17.1 µM (inactive). For the same compound, the GI50 (M14) was 15.5 µM (inactive), the GI50 (Malme-3M) was 19.1 µM (inactive) and the GI50 (NCI-H460) was 25.1 µM (inactive). The GI50 (NCI-H522) was 19.5 µM (inactive), the GI50 (OVCAR-8) was 19.5 µM (inactive) and the GI50 (TK-10) was 23 µM (inactive).
`COC(=O)/C=C1/CCC(C(=O)OC)N1` (stereo not given) was tested, and the GI50 (CCRF-CEM) was > 100 µM (inactive), the GI50 (COLO 205) was > 100 µM (inactive) and the GI50 (HCT-116) was > 100 µM (inactive). The GI50 (KM12) was > 100 µM (inactive), the GI50 (LOX IMVI) was > 100 µM (inactive) and the GI50 (M14) was > 100 µM (inactive). For the same compound, the GI50 (NCI-H460) was > 100 µM (inactive), the GI50 (OVCAR-8) was > 100 µM (inactive) and the GI50 (TK-10) was > 100 µM (inactive).
For `COc1ccc(C(Cc2cc(OC)c(OC)c(OC)c2)C(=O)O)cc1` (stereo not given), the GI50 (CCRF-CEM) was 46 µM (inactive), the GI50 (COLO 205) was > 100 µM (inactive) and the GI50 (HCT-116) was 41.5 µM (inactive). For the same compound, the GI50 (HT-29) was 37.6 µM (inactive), the GI50 (KM12) was 41.8 µM (inactive) and the GI50 (LOX IMVI) was > 100 µM (inactive). For the same compound, the GI50 (M14) was 44.6 µM (inactive), the GI50 (Malme-3M) was 74 µM (inactive) and the GI50 (NCI-H460) was 45.7 µM (inactive). The GI50 (OVCAR-8) was > 100 µM (inactive) and the GI50 (TK-10) was > 100 µM (inactive).
